Patent publication US20210393645A1, “TREATMENT FOR PROGRESSIVE MULTIPLE SCLEROSIS” (UTI LIMITED PARTNERSHIP, priority 2016, published 2021)
Where a name gives a salt, the structure may show the parent alone.

What follows are compounds tested on human neurons (assay: Iron (FeSO4) mediated neurotoxicity screening, MAP-2 positive neurons counted). Details: not given.
Assay type: cell-based
Procedure: Human neurons were isolated from brain tissues of therapeutically aborted 15-20 week old fetuses, in accordance with ethics approval of the University of Calgary ethics committee, after written informed consent of the pregnant donors. Neurons were isolated as previously described (Vecil et al., 2000) brain specimens were washed in phosphate buffered saline (PBS) to remove blood, followed by removal of meninges. […] Thereafter, the digestion was stopped by addition of 4 ml fetal calf serum (FCS). […] Cells were cultured in feeding medium of minimal essential medium (MEM) supplemented with 10% fetal bovine serum (FBS), 1 μM sodium pyruvate, 10 μM glutamine, 1× non-essential amino acids, 0.1% dextrose and 1% penicillin/streptomycin (all culture supplements from Invitrogen, Burlington, Canada). […] For experiments, the neuron-enriched cultures were retrypsinized and cells were plated in poly-L-ornithine pre-coated 96-well plates at a density of 100,000 cells/well in 100 μl of the complete medium supplemented with cytosine arabinoside. […] All conditions were performed in quadruplicates. A day later cells were fixed using 4% paraformaldehyde (PFA) and stored in PBS in 4° C.
Briefly, there were 80 compounds located in specific wells on each plate (e. g. B07). […] Each compound was supplied at a concentration of 10 mM dissolved in DMSO.
After filtering with a 0.2 μm filter, FeSO4 was added to cells in a final concentration of 25-50 μM in a volume of 50 μl medium to the cells. Rotenone was dissolved in dimethyl sulfoxide (DMSO) and used in a final concentration of 10 μM.
Staining was performed at room temperature. A blocking buffer was first introduced for 1 h followed by incubation with primary antibody overnight in 4° C.
Cell nuclei were stained with Hoechst S769121 (nuclear yellow). Cells were stored in 4° C. in the dark before imaging.
Images were taken using the automated ImageXpress® imaging system (Molecular Devices, Sunnyvale, Calif.) through a 10x objective microscope lens, displaying 4 or 9 sites per well. […] Cells were defined according to fluorescence intensity and size at different wavelengths. Data from all sites per well were averaged to one data point.
Neurons were pre-incubated with each compound for 1 h followed by application of FeSO4.

Row | Structure (SMILES) | Drug % control (mean): number of neurons normalized to untreated control [%]
1 | CC(C)[N+]1(C)[C@@H]2CC[C@H]1CC(OC(=O)C(CO)c1ccccc1)C2.[Br-] (some centres unmarked) [IPRATROPIUM BROMIDE] | 63.39

Same assay, conditions: Homo sapiens, Neuron, 24 h, read-out: Drug % control (mean): number of neurons normalized to untreated control

Row | Structure (SMILES) | viability at 10 µM [%]
2 | CN[C@H](CC(C)C)C(=O)N[C@H]1C(=O)N[C@@H](CC(N)=O)C(=O)N[C@H]2C(=O)N[C@H]3C(=O)N[C@H](C(=O)N[C@H](C(=O)O)c4cc(O)cc(O)c4-c4cc3ccc4O)[C@H](O)c3ccc(c(Cl)c3)Oc3cc2cc(c3O[C@@H]2O[C@H](CO)[C@@H](O)[C@H](O)[C@H]2O[C@H]2C[C@](C)(N)[C@H](O)[C@H](C)O2)Oc2ccc(cc2Cl)[C@H]1O [VANCOMYCIN HYDROCHLORIDE] | 11.7
3 | CC(C)C[C@H](CN)CC(=O)O [PREGABALIN] | 47.8
4 | CC1=C(C(=O)O)N2C(=O)[C@@H](NC(=O)[C@H](N)c3ccccc3)[C@H]2SC1 [CEPHALEXIN] | 38.9

Same assay, conditions: Homo sapiens, Neuron; drug 10 μM 1 h before FeSO4 25 or 50 μM; MAP-2 neurons after 24 h; read-out: Drug % control (mean): number of neurons normalized to untreated control

Row | Structure (SMILES) | viability at 10 µM [%]
5 | CN(C)CCOC(c1ccccc1)c1ccccc1 [DIPHENHYDRAMINE HYDROCHLORIDE] | 74.7
6 | N[C@@H](Cc1ccc(O)c(O)c1)C(=O)O [LEVODOPA] | 81.2
7 | CC(C)(C)NC[C@H](O)COc1nsnc1N1CCOCC1 [TIMOLOL MALEATE] | 11.1
8 | CCCc1cc(=O)[nH]c(=S)[nH]1 [PROPYLTHIOURACIL] | 35.9
9 | CC[C@H]1OC(=O)[C@H](C)[C@@H](O[C@H]2C[C@@](C)(OC)[C@@H](O)[C@H](C)O2)[C@H](C)[C@@H](O[C@@H]2O[C@H](C)C[C@H](N(C)C)[C@H]2O)[C@](C)(O)C[C@@H](C)CN(C)[C@H](C)[C@@H](O)[C@]1(C)O [AZITHROMYCIN] | 56.8
10 | CN(C)[C@@H]1C(O)=C(C(N)=O)C(=O)[C@@]2(O)C(O)=C3C(=O)c4c(O)cccc4[C@@](C)(O)[C@H]3C[C@@H]12 [TETRACYCLINE HYDROCHLORIDE] | 25
11 | CN[C@@H](C)[C@@H](O)c1ccccc1 [PSEUDOEPHEDRINE HYDROCHLORIDE] | 26.7
12 | O=C1CN(/N=C/c2ccc([N+](=O)[O-])o2)C(=O)N1 [NITROFURANTOIN] | 17.8
13 | NC[C@H]1CC[C@H](C(=O)O)CC1 [TRANEXAMIC ACID] | 36.3
14 | CN(C)CCC(c1ccc(Br)cc1)c1ccccn1 (centres unmarked) [BROMPHENIRAMINE MALEATE] | 79.9
15 | NS(=O)(=O)c1cc(C2(O)NC(=O)c3ccccc32)ccc1Cl (centres unmarked) [CHLORTHALIDONE] | 7.66
16 | Cc1ccc(S(=O)(=O)NC(=O)NN2CC3CCCC3C2)cc1 (centres unmarked) [GLICLAZIDE] | 47.3
17 | CN(C)CCC=C1c2ccccc2CCc2ccccc21 [AMITRIPTYLINE HYDROCHLORIDE] | 34.8
18 | CCCc1nn(C)c2c(=O)[nH]c(-c3cc(S(=O)(=O)N4CCN(C)CC4)ccc3OCC)nc12 | 49.3
19 | C[C@H](CS)C(=O)N1CCC[C@H]1C(=O)O [CAPTOPRIL] | 35.3
20 | S=c1nc[nH]c2nc[nH]c12 [MERCAPTOPURINE] | 1.73
21 | CN(C)CCc1c[nH]c2ccc(CS(=O)(=O)N3CCCC3)cc12 [ALMOTRIPTAN] | 94.4
22 | C[C@H]1c2cccc(O)c2C(=O)C2=C(O)[C@]3(O)C(=O)C(C(N)=O)=C(O)[C@@H](N(C)C)[C@@H]3[C@@H](O)[C@@H]21 [DOXYCYCLINE HYDROCHLORIDE] | 12.7
23 | CN(C)CCc1c[nH]c2ccc(C[C@H]3COC(=O)N3)cc12 [ZOLMITRIPTAN] | 54.9
24 | CCN(CCO)CCCC(C)Nc1ccnc2cc(Cl)ccc12 (centres unmarked) [HYDROXYCHLOROQUINE SULFATE] | 75.9
25 | NS(=O)(=O)c1cc2c(cc1Cl)NCNS2(=O)=O [HYDROCHLOROTHIAZIDE] | 2.55
26 | CN1CCN(CCCN2c3ccccc3Sc3ccc(Cl)cc32)CC1 [PROCHLORPERAZINE EDISYLATE] | 4.88
27 | Nc1ccc(S(=O)(=O)c2ccc(N)cc2)cc1 [DAPSONE] | 18.6
28 | NS(=O)(=O)c1cc(C(=O)O)c(NCc2ccco2)cc1Cl [FUROSEMIDE] | 3.96
29 | O=C1[C@H](CC[C@H](O)c2ccc(F)cc2)[C@@H](c2ccc(O)cc2)N1c1ccc(F)cc1 [EZETIMIBE] | 50.5

Row | Structure (SMILES) | viability at 10 µM [%]
30 | CCOC(=O)C1=C(COCCN)NC(C)=C(C(=O)OC)C1c1ccccc1Cl (centres unmarked) [AMLODIPINE BESYLATE] | 93.1
31 | Cc1c(Cl)cccc1Nc1ccccc1C(=O)O [TOLFENAMIC ACID] | 40.3
32 | CN(C)c1nc(N(C)C)nc(N(C)C)n1 [ALTRETAMINE] | 4.2
33 | NC(=O)N1c2ccccc2CC(=O)c2ccccc21 [OXCARBAZEPINE] | 38.2
34 | CCOC(=O)[C@H](CCc1ccccc1)N[C@@H](C)C(=O)N1CCC[C@H]1C(=O)O [ENALAPRIL MALEATE] | 41
35 | CN1CCC[C@@H]1CCO[C@](C)(c1ccccc1)c1ccc(Cl)cc1 [CLEMASTINE] | 6.19
36 | CCCCNc1cc(C(=O)O)cc(S(N)(=O)=O)c1Oc1ccccc1 [BUMETANIDE] | 29.4
37 | CN1CCC(OC(c2ccccc2)c2ccccc2)CC1 [HYDROCHLORIDE] | 4.61
38 | Cc1cc(=O)n(-c2ccccc2)n1C [ANTIPYRINE] | 2.11
39 | CCCN(CCC)S(=O)(=O)c1ccc(C(=O)O)cc1 [PROBENECID] | 71.5
40 | CNC(=C[N+](=O)[O-])NCCSCc1ccc(CN(C)C)o1 [RANITIDINE] | 40.2
41 | CC(=O)Nc1nnc(S(N)(=O)=O)s1 [ACETAZOLAMIDE] | 23.6
42 | COc1ccc2c(c1)c(CC(=O)O)c(C)n2C(=O)c1ccc(Cl)cc1 [INDOMETHACIN] | 4.52
43 | CC(CCc1ccccc1)NC(C)C(O)c1ccc(O)cc1 (centres unmarked) [NYLIDRIN HYDROCHLORIDE] | 50.1
44 | OCCOCCN1CCN(C(c2ccccc2)c2ccc(Cl)cc2)CC1 (centres unmarked) [HYDROXYZINE PAMOATE] | 4.01
45 | NNCCc1ccccc1 [PHENELZINE SULFATE] | 46.7
46 | O=C(c1ccccc1)c1ccc2n1CCC2C(=O)O (centres unmarked) [KETOROLAC TROMETHAMINE] | 52.4
47 | Cc1cccc(Nc2ccccc2C(=O)O)c1C [MEFENAMIC ACID] | 57.2
48 | COc1c2occc2cc2ccc(=O)oc12 [METHOXSALEN] | 59
49 | CC(C)N(CCC(C(N)=O)(c1ccccc1)c1ccccn1)C(C)C (centres unmarked) [DISOPYRAMIDE PHOSPHATE] | 4.63
50 | COc1ccc(C(CN(C)C)C2(O)CCCCC2)cc1 (centres unmarked) [VENLAFAXINE] | 72.5
51 | CCCCCCc1ccc(O)cc1O [HEXYLRESORCINOL] | 71.5
52 | CC(NC(C)(C)C)C(=O)c1cccc(Cl)c1 (centres unmarked) [BUPROPION] | 55.5
53 | NC[C@@H]1O[C@H](O[C@H]2[C@@H](O)[C@H](O[C@@H]3[C@@H](O)[C@H](N)C[C@H](N)[C@H]3O[C@H]3O[C@H](CO)[C@@H](O)[C@H](O)[C@H]3N)O[C@@H]2CO)[C@H](N)[C@@H](O)[C@@H]1O [PAROMOMYCIN SULFATE] | 35.3
54 | CNCCCC12CCC(c3ccccc31)c1ccccc12 [MAPROTILINE HYDROCHLORIDE] | 0.61

Same assay, conditions: drug 10 μM 1 h before FeSO4 25 or 50 μM; MAP-2 neurons after 24 h

Row | Structure (SMILES) | Drug % control (mean): number of neurons normalized to untreated control [%]
55 | CCOc1nc2cccc(C(=O)OC(C)OC(=O)OC3CCCCC3)c2n1Cc1ccc(-c2ccccc2-c2nn[nH]n2)cc1 (centres unmarked) [CANDESARTAN CILEXTIL] | 35.48
56 | COc1ccc2cc([C@H](C)C(=O)O)ccc2c1 [NAPROXEN(+)] | 25.64
